Reference: patent US8653087B2, “Pyrido [5, 4-D] pyrimidines as cell proliferation inhibitors” (Boehringer Ingelheim International GmbH, priority 2008, dated 2014)

Molecular target: B-Raf (V600E)-kinase (Homo sapiens (Human), UniProt P15056, V600E)
Assay: Kinase test B-RAF (V600E)
Format: biochemical
Conditions: B-RAF (V600E) kinase test, 250 μM ATP
How it was run: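 Read-out is DELFIA europium TRF of phospho-MEK (Ser217/221) on biotinylated MEK1 bound to streptavidin plates, IC50 from dose-response. Reaction ran 60 min at RT with 250 μM ATP, after a 24 h RT preincubation of compound with B-Raf (V600E) kinase, 5% DMSO final.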

Sequence of B-Raf (V600E)-kinase (P15056 whole entry V600E): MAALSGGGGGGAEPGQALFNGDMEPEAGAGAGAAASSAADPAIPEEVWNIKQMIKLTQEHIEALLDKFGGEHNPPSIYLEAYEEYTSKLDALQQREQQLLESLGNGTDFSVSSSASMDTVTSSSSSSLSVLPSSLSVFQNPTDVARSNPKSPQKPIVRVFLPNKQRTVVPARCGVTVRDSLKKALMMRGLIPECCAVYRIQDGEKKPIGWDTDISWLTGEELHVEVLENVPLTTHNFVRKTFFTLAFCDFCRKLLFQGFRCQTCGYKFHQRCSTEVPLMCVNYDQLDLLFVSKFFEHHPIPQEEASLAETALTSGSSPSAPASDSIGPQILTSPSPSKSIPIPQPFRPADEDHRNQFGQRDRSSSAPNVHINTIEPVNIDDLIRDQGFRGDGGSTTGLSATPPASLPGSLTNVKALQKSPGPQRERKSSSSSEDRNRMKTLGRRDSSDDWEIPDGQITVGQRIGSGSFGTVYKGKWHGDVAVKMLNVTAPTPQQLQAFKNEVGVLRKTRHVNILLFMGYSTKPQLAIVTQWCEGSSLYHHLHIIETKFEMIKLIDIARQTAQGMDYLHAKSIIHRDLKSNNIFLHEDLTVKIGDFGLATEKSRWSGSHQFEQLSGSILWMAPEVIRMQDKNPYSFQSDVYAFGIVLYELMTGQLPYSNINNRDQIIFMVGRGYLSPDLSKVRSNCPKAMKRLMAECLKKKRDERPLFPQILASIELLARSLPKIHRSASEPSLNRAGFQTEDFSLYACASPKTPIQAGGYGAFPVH

Compared with `CN(C)C1CCN(c2ncc3ncnc(Nc4cc(Cl)cc(C(=O)Nc5cc(C(C)(C)C)nn5C)c4)c3n2)C1` (stereo not drawn) [III-379], `CN(C)C1CCN(c2ncc3ncnc(Nc4cc(C(=O)Nc5cc(C(C)(C)C)on5)ccc4F)c3n2)C1` (stereo not drawn) [III-399] is 3-fold lower in IC50: 6 nM for the first, 2 nM for the second. The second is the more potent here.

First: O=C(NC1CCOC1)c1ccc(F)c(Nc2ncnc3cnc(NC4CCOC4)nc23)c1 (stereo not drawn) [III-380]
Second: CC(C)(C)c1cc(NC(=O)c2ccc(F)c(Nc3ncnc4cnc(NC5CCOC5)nc34)c2)no1 (stereo not drawn) [III-381]
The IC50 of the first is 470-fold higher: 1400 nM for the first, 3 nM for the second. The second is the more potent here.

Going from `CN1CCN(c2cc(NC(=O)c3ccc(F)c(Nc4ncnc5cnc(N6CCOCC6)nc45)c3)cc(C(F)(F)F)c2)CC1` [III-382] to `CN1CCN(c2cc(NC(=O)c3ccc(F)c(Nc4ncnc5cnc(N6CCOCC6)nc45)c3)cc(C(F)(F)F)c2F)CC1` [III-385], the IC50 rises from under 1 nM to 2 nM. The first is the more potent here.

Compared with `CC(C)(C#N)c1cccc(NC(=O)c2ccc(F)c(Nc3ncnc4cnc(N5CCOCC5)nc34)c2)c1` [III-383], `CC(C)(C#N)c1cccc(NC(=O)c2ccc(F)c(Nc3ncnc4cnc(NC5CCOC5)nc34)c2)c1` (stereo not drawn) [III-386] is 4-fold lower in IC50: 4 nM for the first, 1 nM for the second.

Going from `Cn1nc(C(C)(C)C)cc1NC(=O)c1ccc(F)c(Nc2ncnc3cnc(N4CCOCC4)nc23)c1` [III-384] to `CC(C)(C)c1cc(NC(=O)c2ccc(F)c(Nc3ncnc4cnc(N5CCOCC5)nc34)c2)[nH]n1` [III-391], the IC50 falls from 2 nM to 1 nM (2-fold). The second is the more potent here.

First: Cn1nc(C(C)(C)C)cc1NC(=O)c1ccc(F)c(Nc2ncnc3cnc(NC4CCOC4)nc23)c1 (stereo not drawn) [III-387]
Second: CC(C)(C)c1cc(NC(=O)c2ccc(F)c(Nc3ncnc4cnc(NC5CCOC5)nc34)c2)[nH]n1 (stereo not drawn) [III-392]
The IC50 of the first is 1.5-fold lower: 2 nM for the first, 3 nM for the second. The first is the more potent here.

`CN1CCN(c2cc(NC(=O)c3ccc(F)c(Nc4ncnc5cnc(NC6CCOC6)nc45)c3)cc(C(F)(F)F)c2)CC1` (stereo not drawn) [III-388] and `CN1CCN(c2cc(NC(=O)c3ccc(F)c(Nc4ncnc5cnc(NC6CCOC6)nc45)c3)cc(C(F)(F)F)c2F)CC1` (stereo not drawn) [III-389] cannot be ordered by IC50: under 1 nM for the first, under 1 nM for the second.

First: COc1ccc(NC(=O)c2ccc(F)c(Nc3ncnc4cnc(NC5CCOC5)nc34)c2)cc1C(F)(F)F (stereo not drawn) [III-390]
Second: CCN1CCN(c2ncc3ncnc(Nc4cc(C(=O)Nc5ccc(OC)c(C(F)(F)F)c5)ccc4F)c3n2)CC1 [III-405]
The IC50 of the first is lower: under 1 nM for the first, 5 nM for the second. The first is the more potent here.

First: O=C(Nc1cc(C(F)(F)F)ccn1)c1ccc(F)c(Nc2ncnc3cnc(N4CCOCC4)nc23)c1 [III-393]
Second: Cc1ccc(C(=O)Nc2cc(C(F)(F)F)ccn2)cc1Nc1ncnc2cnc(N3CCN(CC(C)C)CC3)nc12 [III-449]
The IC50 of the first is 3-fold lower: 1 nM for the first, 3 nM for the second.

`CN1CCC(CN2CCN(c3ncc4ncnc(Nc5cc(C(=O)Nc6cc(C(C)(C)C)on6)ccc5F)c4n3)CC2)CC1` [III-394] and `Cc1ccc(C(=O)Nc2cc(C(C)(C)C)on2)cc1Nc1ncnc2cnc(N3CCN(CC4CCN(C)CC4)CC3)nc12` [III-420] are the same in IC50: 1 nM for the first, 1 nM for the second.

Compared with `COCCN1CCN(c2ncc3ncnc(Nc4cc(C(=O)Nc5cc(C(C)(C)C)on5)ccc4F)c3n2)CC1` [III-395], `CCN1CCN(c2ncc3ncnc(Nc4cc(C(=O)Nc5cc(C(C)(C)C)on5)ccc4F)c3n2)CC1` [III-398] is 4-fold lower in IC50: 4 nM for the first, 1 nM for the second. The second is the more potent here.

`CC(C)N1CCN(c2ncc3ncnc(Nc4cc(C(=O)Nc5cc(C(C)(C)C)on5)ccc4F)c3n2)CC1` [III-396] and `CC(C)(C)c1cc(NC(=O)c2ccc(F)c(Nc3ncnc4cnc(N5CCN(CC6CC6)CC5)nc34)c2)no1` [III-397] are within 1.5-fold of each other in IC50: 3 nM for the first, 4 nM for the second.

`CN1CCC(N(C)c2ncc3ncnc(Nc4cc(C(=O)Nc5cc(C(C)(C)C)on5)ccc4F)c3n2)C1` (stereo not drawn) [III-400] and `CN(C)C1CCN(c2ncc3ncnc(Nc4cc(C(=O)Nc5cc(C(C)(C)C)on5)ccc4F)c3n2)CC1` [III-401] are within 1.5-fold of each other in IC50: 4 nM for the first, 3 nM for the second.

`COCCN1CCN(c2ncc3ncnc(Nc4cc(C(=O)Nc5ccc(OC)c(C(F)(F)F)c5)ccc4F)c3n2)CC1` [III-402] and `COCCN1CCN(c2ncc3ncnc(Nc4cc(C(=O)Nc5ccc(OC)c(C(F)(F)F)c5)ccc4C)c3n2)CC1` [III-427] are the same in IC50: 2 nM for the first, 2 nM for the second.

Going from `COc1ccc(NC(=O)c2ccc(F)c(Nc3ncnc4cnc(N5CCN(C(C)C)CC5)nc34)c2)cc1C(F)(F)F` [III-403] to `COc1ccc(NC(=O)c2ccc(C)c(Nc3ncnc4cnc(N5CCN(C(C)C)CC5)nc34)c2)cc1C(F)(F)F` [III-437], the IC50 falls from 3 nM to 2 nM (1.5-fold).

`COc1ccc(NC(=O)c2ccc(F)c(Nc3ncnc4cnc(N5CCN(CC6CC6)CC5)nc34)c2)cc1C(F)(F)F` [III-404] and `COc1ccc(NC(=O)c2ccc(C)c(Nc3ncnc4cnc(N5CCN(CC6CCOC6)CC5)nc34)c2)cc1C(F)(F)F` (stereo not drawn) [III-432] are the same in IC50: 6 nM for the first, 6 nM for the second.

Compared with `Cc1ccc(C(=O)Nc2cc(N(C)CCN(C)C)cc(C(F)(F)F)c2)cc1Nc1ncnc2cnc(N(C)CC3CCCCO3)nc12` (stereo not drawn) [III-407], `Cc1ccc(C(=O)Nc2cc(N(C)CCN(C)C)cc(C(F)(F)F)c2)cc1Nc1ncnc2cnc(N3CCCC3)nc12` [III-440] is 27-fold higher in IC50: 10 nM for the first, 272 nM for the second.

Compared with `CCN1CCN(c2cc(NC(=O)c3ccc(C)c(Nc4ncnc5cnc(N(C)CC6CCCCO6)nc45)c3)cc(C(F)(F)F)c2)CC1` (stereo not drawn) [III-408], `CCN1CCN(c2cc(NC(=O)c3ccc(C)c(Nc4ncnc5cnc(N6CC[C@H](F)C6)nc45)c3)cc(C(F)(F)F)c2)CC1` [III-439] is 6.2-fold lower in IC50: 25 nM for the first, 4 nM for the second.

Going from `COc1ccc(NC(=O)c2ccc(C)c(Nc3ncnc4cnc(N(C)CC5CCCCO5)nc34)c2)cc1C(F)(F)F` (stereo not drawn) [III-409] to `COc1ccc(NC(=O)c2ccc(C)c(Nc3ncnc4cnc(N5CCCC5)nc34)c2)cc1C(F)(F)F` [III-445], the IC50 falls from 9 nM to 2 nM (4.5-fold).

First: Cc1ccc(C(=O)Nc2cccc(OC(F)(F)F)c2)cc1Nc1ncnc2cnc(N3CCOCC3)nc12 [III-410]
Second: COCCN1CCN(c2ncc3ncnc(Nc4cc(C(=O)Nc5cccc(C(F)(F)F)c5)ccc4C)c3n2)CC1 [III-423]
The IC50 of the first is higher: 1 nM for the first, under 1 nM for the second. The second is the more potent here.

Compared with `COc1ccc(NC(=O)c2ccc(C)c(Nc3ncnc4cnc(N5CC[C@H](F)C5)nc34)c2)cc1C(F)(F)F` [III-411], `COc1ccc(NC(=O)c2ccc(C)c(Nc3ncnc4cnc(N5CCC(N(C)C)CC5)nc34)c2)cc1C(F)(F)F` [III-435] is 3-fold lower in IC50: 3 nM for the first, 1 nM for the second.

Compared with `Cc1ccc(C(=O)Nc2cc(C(C)(C)C)on2)cc1Nc1ncnc2cnc(N3CC[C@H](F)C3)nc12` [III-412], `Cc1ccc(C(=O)Nc2cc(C(C)(C)C)n[nH]2)cc1Nc1ncnc2cnc(N3CCN(C)CC3)nc12` [III-448] is 1.6-fold higher in IC50: 5 nM for the first, 8 nM for the second.

Compared with `COc1ccc(C(F)(F)F)cc1NC(=O)c1ccc(C)c(Nc2ncnc3cnc(N4CCN(CC5CCN(C)CC5)CC4)nc23)c1` [III-413], `COc1ccc(C(C)(C)C)cc1NC(=O)c1ccc(C)c(Nc2ncnc3cnc(N4CCN(CC5CCN(C)CC5)CC4)nc23)c1` [III-415] is higher in IC50: under 1 nM for the first, 3 nM for the second.

Going from `Cc1ccc(C(=O)Nc2cc(C(C)(C)C)nn2C)cc1Nc1ncnc2cnc(N3CCN(CC4CCN(C)CC4)CC3)nc12` [III-414] to `Cc1ccc(C(=O)Nc2cc(C(C)(C)C)n[nH]2)cc1Nc1ncnc2cnc(N3CCN(CC4CCN(C)CC4)CC3)nc12` [III-418], the IC50 falls from 7 nM to 2 nM (3.5-fold).

Going from `Cc1ccc(C(=O)Nc2cccc(C(C)(C)C)c2)cc1Nc1ncnc2cnc(N3CCN(CC4CCN(C)CC4)CC3)nc12` [III-416] to `Cc1ccc(C(=O)Nc2cccc(C(F)(F)F)c2)cc1Nc1ncnc2cnc(N3CCN(CC4CCN(C)CC4)CC3)nc12` [III-417], the IC50 falls from 1 nM to under 1 nM.

`COc1ccc(NC(=O)c2ccc(C)c(Nc3ncnc4cnc(N5CCN(CC6CCN(C)CC6)CC5)nc34)c2)cc1C(F)(F)F` [III-419] and `COc1ccc(NC(=O)c2ccc(C)c(Nc3ncnc4cnc(N5CCCN(C)CC5)nc34)c2)cc1C(F)(F)F` [III-443] are the same in IC50: 1 nM for the first, 1 nM for the second.

Compared with `COCCN1CCN(c2ncc3ncnc(Nc4cc(C(=O)Nc5cc(C(C)(C)C)nn5C)ccc4C)c3n2)CC1` [III-421], `COCCN1CCN(c2ncc3ncnc(Nc4cc(C(=O)Nc5cc(C(C)(C)C)n[nH]5)ccc4C)c3n2)CC1` [III-425] is 1.7-fold lower in IC50: 12 nM for the first, 7 nM for the second.

Going from `COCCN1CCN(c2ncc3ncnc(Nc4cc(C(=O)Nc5cc(C(C)(C)C)ccc5OC)ccc4C)c3n2)CC1` [III-422] to `COCCN1CCN(c2ncc3ncnc(Nc4cc(C(=O)Nc5cc(C(F)(F)F)ccn5)ccc4C)c3n2)CC1` [III-426], the IC50 falls from 5 nM to under 1 nM.

Compared with `CCN1CCN(c2cc(NC(=O)c3ccc(C)c(Nc4ncnc5cnc(N6CCN(CCOC)CC6)nc45)c3)cc(C(F)(F)F)c2)CC1` [III-424], `CCN1CCN(c2cc(NC(=O)c3ccc(C)c(Nc4ncnc5cnc(N6CCOCC6)nc45)c3)cc(C(F)(F)F)c2)CC1` [III-441] is 3-fold lower in IC50: 6 nM for the first, 2 nM for the second.

Compared with `Cc1ccc(C(=O)Nc2cccc(C(C)(C)C)c2)cc1Nc1ncnc2cnc(NCc3ccccc3)nc12` [III-428], `Cc1ccc(C(=O)Nc2cccc(C(C)(C)C#N)c2)cc1Nc1ncnc2cnc(NCc3ccccc3)nc12` [III-430] is higher in IC50: under 1 nM for the first, 7 nM for the second. The first is the more potent here.

First: Cc1ccc(C(=O)Nc2cc(C(C)(C)C)nn2C)cc1Nc1ncnc2cnc(NCc3ccccc3)nc12 [III-429]
Second: Cc1ccc(C(=O)Nc2cc(C(C)(C)C)n[nH]2)cc1Nc1ncnc2cnc(N3CCCN(C)CC3)nc12 [III-446]
The IC50 of the first is 3-fold lower: 2 nM for the first, 6 nM for the second. The first is the more potent here.

Going from `COc1ccc(NC(=O)c2ccc(C)c(Nc3ncnc4cnc(N5C[C@H]6C[C@@H]5CN6C)nc34)c2)cc1C(F)(F)F` [III-431] to `COc1ccc(NC(=O)c2ccc(C)c(Nc3ncnc4cnc(N5C[C@@H](C)N[C@@H](C)C5)nc34)c2)cc1C(F)(F)F` [III-436], the IC50 falls from 3 nM to 2 nM (1.5-fold).

Compared with `COc1ccc(NC(=O)c2ccc(C)c(Nc3ncnc4cnc(N5CCN(C6CC6)CC5)nc34)c2)cc1C(F)(F)F` [III-433], `COc1ccc(NC(=O)c2ccc(C)c(Nc3ncnc4cnc(N5CCN(CC(C)C)CC5)nc34)c2)cc1C(F)(F)F` [III-444] is 1.8-fold lower in IC50: 7 nM for the first, 4 nM for the second.

Going from `Cc1ccc(C(=O)Nc2cc(N(C)CCN(C)C)cc(C(F)(F)F)c2)cc1Nc1ncnc2cnc(N3CC[C@H](F)C3)nc12` [III-438] to `Cc1ccc(C(=O)Nc2cc(N(C)CCN(C)C)cc(C(F)(F)F)c2)cc1Nc1ncnc2cnc(N3CCOCC3)nc12` [III-442], the IC50 falls from 6 nM to 1 nM (6-fold). The second is the more potent here.

In the case of `Cc1ccc(C(=O)Nc2cc(C(C)(C)C)n[nH]2)cc1Nc1ncnc2cnc(N3CCN(CC(C)C)CC3)nc12` [III-447], the IC50 is reported as 13 nM.
